Source: ChEMBL document CHEMBL3817761, “Chenopodium album metabolites act as dual topoisomerase inhibitors and induce apoptosis in the MCF7 cell line” (Medchemcomm, 2016)
The source made the active and inactive calls. No cut-off for these calls is given here.

Legend:
[1] = tested on: MCF7; assay: Cell cycle arrest in human MCF7 cells assessed as accumulation at G2/M phase at 8.27 uM after 24 hrs by propidium iodide staining based flow cytometry (reference value: 25 %); type: functional
[2] = tested on: MCF7; assay: Induction of apoptosis in human MCF7 cells assessed as cell detachment at 8.27 uM after 24 hrs by inverted phase contrast microscopy; type: functional, cell-based
[3] = tested on: MCF7; assay: Induction of apoptosis in human MCF7 cells assessed as late apoptotic cells at 8.27 uM after 48 hrs by Annexin-V-FITC/propidium iodide staining based flow cytometry relative to control; type: functional
[4] = tested on: MCF7; assay: Cell cycle arrest in human MCF7 cells assessed as accumulation at G0/G1 phase at 8.27 uM after 48 hrs by propidium iodide staining based flow cytometry (reference value: 59.7 %); type: functional
[5] = tested on: MCF7; assay: Induction of apoptosis in human MCF7 cells assessed as caspase 7 cleavage at 8.27 uM after 48 hrs by Western blot analysis; type: functional, cell-based
[6] = tested on: MCF7; assay: Induction of ROS accumulation in human MCF7 cells at 8.27 uM after 24 hrs by CM-H2-DCFDA probe based flow cytometry (reference value: 12.6 %); type: functional
[7] = tested on: MCF7; assay: Induction of apoptosis in human MCF7 cells assessed as caspase 9 cleavage at 8.27 uM after 48 hrs by Western blot analysis; type: functional, cell-based
[8] = tested on: MCF7; assay: Induction of apoptosis in human MCF7 cells assessed as viable cells at 8.27 uM after 48 hrs by Annexin-V-FITC/propidium iodide staining based flow cytometry (reference value: 99.2 %); type: functional; conditions: MCF7, 48 h, read-out: Activity
[9] = tested on: MCF7; assay: Induction of apoptosis in human MCF7 cells assessed as late apoptotic cells at 8.27 uM after 24 hrs by Annexin-V-FITC/propidium iodide staining based flow cytometry (reference value: 0.1 %); type: functional
[10] = tested on: MCF7; assay: Induction of apoptosis in human MCF7 cells assessed as necrotic cells at 8.27 uM after 48 hrs by Annexin-V-FITC/propidium iodide staining based flow cytometry (reference value: 0.4 %); type: functional
[11] = tested on: MCF7; assay: Induction of apoptosis in human MCF7 cells assessed as PARP-1 cleavage at 8.27 uM after 48 hrs by Western blot analysis; type: functional, cell-based
[12] = tested on: MCF7; assay: Cell cycle arrest in human MCF7 cells assessed as accumulation at S phase at 8.27 uM after 24 hrs by propidium iodide staining based flow cytometry (reference value: 24.5 %); type: functional
[13] = tested on: MCF7; assay: Induction of apoptosis in human MCF7 cells assessed as early apoptotic cells at 8.27 uM after 24 hrs by Annexin-V-FITC/propidium iodide staining based flow cytometry (reference value: 2.3 %); type: functional
[14] = tested on: MCF7; assay: Induction of mitochondrial membrane depolarization in human MCF7 cells at 8.27 uM after 24 hrs by JC-1 staining based FACS assay (reference value: 9.9 %); type: functional
[15] = tested on: MCF7; assay: Induction of apoptosis in human MCF7 cells assessed as viable cells at 8.27 uM after 24 hrs by Annexin-V-FITC/propidium iodide staining based flow cytometry (reference value: 95.9 %); type: functional; conditions: MCF7, 24 h, read-out: Activity
[16] = tested on: MCF7; assay: Induction of mitochondrial membrane depolarization in human MCF7 cells assessed as ratio of red to green fluorescence at 8.27 uM after 24 hrs by JC-1 staining based FACS assay (reference value: 9.1); type: functional
[17] = tested on: MCF7; assay: Cell cycle arrest in human MCF7 cells assessed as accumulation at G0/G1 phase at 8.27 uM after 24 hrs by propidium iodide staining based flow cytometry (reference value: 50.3 %); type: functional
[18] = tested on: MCF7; assay: Cell cycle arrest in human MCF7 cells assessed as accumulation at S phase at 8.27 uM after 48 hrs by propidium iodide staining based flow cytometry (reference value: 20.6 %); type: functional
[19] = tested on: MCF7; assay: Induction of apoptosis in human MCF7 cells assessed as necrotic cells at 8.27 uM after 24 hrs by Annexin-V-FITC/propidium iodide staining based flow cytometry (reference value: 1.7 %); type: functional
[20] = tested on: MCF7; assay: Induction of apoptosis in human MCF7 cells assessed as early apoptotic cells at 11.33 uM after 48 hrs by Annexin-V-FITC/propidium iodide staining based flow cytometry (reference value: 0.4 %); type: functional
[21] = tested on: MCF7; assay: Induction of apoptosis in human MCF7 cells assessed as caspase 7 cleavage at 11.33 uM after 48 hrs by Western blot analysis; type: functional, cell-based
[22] = tested on: MCF7; assay: Induction of mitochondrial membrane depolarization in human MCF7 cells at 11.33 uM after 24 hrs by JC-1 staining based FACS assay (reference value: 9.9 %); type: functional
[23] = tested on: MCF7; assay: Induction of apoptosis in human MCF7 cells assessed as caspase 9 cleavage at 11.33 uM after 48 hrs by Western blot analysis; type: functional, cell-based
[24] = tested on: MCF7; assay: Induction of mitochondrial membrane depolarization in human MCF7 cells assessed as ratio of red to green fluorescence at 11.33 uM after 48 hrs by JC-1 staining based FACS assay (reference value: 9.1); type: functional
[25] = tested on: MCF7; assay: Induction of apoptosis in human MCF7 cells assessed as cell detachment at 11.33 uM after 24 hrs by inverted phase contrast microscopy; type: functional, cell-based
[26] = tested on: MCF7; assay: Induction of apoptosis in human MCF7 cells assessed as necrotic cells at 11.33 uM after 48 hrs by Annexin-V-FITC/propidium iodide staining based flow cytometry (reference value: 0.4 %); type: functional
[27] = tested on: MCF7; assay: Induction of apoptosis in human MCF7 cells assessed as PARP-1 cleavage at 11.33 uM after 48 hrs by Western blot analysis; type: functional, cell-based
[28] = tested on: MCF7; assay: Induction of apoptosis in human MCF7 cells assessed as necrotic cells at 11.33 uM after 24 hrs by Annexin-V-FITC/propidium iodide staining based flow cytometry (reference value: 1.7 %); type: functional
[29] = tested on: MCF7; assay: Cell cycle arrest in human MCF7 cells assessed as accumulation at G0/G1 phase at 11.33 uM after 48 hrs by propidium iodide staining based flow cytometry (reference value: 59.7 %); type: functional
[30] = tested on: MCF7; assay: Induction of apoptosis in human MCF7 cells assessed as early apoptotic cells at 11.33 uM after 24 hrs by Annexin-V-FITC/propidium iodide staining based flow cytometry (reference value: 2.3 %); type: functional
[31] = tested on: MCF7; assay: Induction of apoptosis in human MCF7 cells assessed as rounded cells at 11.33 uM after 24 hrs by inverted phase contrast microscopy; type: functional, cell-based
[32] = tested on: MCF7; assay: Cell cycle arrest in human MCF7 cells assessed as accumulation at G2/M phase at 11.33 uM after 24 hrs by propidium iodide staining based flow cytometry (reference value: 25 %); type: functional
[33] = tested on: MCF7; assay: Induction of apoptosis in human MCF7 cells assessed as viable cells at 11.33 uM after 48 hrs by Annexin-V-FITC/propidium iodide staining based flow cytometry (reference value: 99.2 %); type: functional; conditions: MCF7, 48 h, read-out: Activity
[34] = tested on: MCF7; assay: Cell cycle arrest in human MCF7 cells assessed as accumulation at S phase at 11.33 uM after 24 hrs by propidium iodide staining based flow cytometry (reference value: 24.5 %); type: functional
[35] = tested on: MCF7; assay: Induction of mitochondrial membrane depolarization in human MCF7 cells at 11.33 uM by JC-1 staining based FACS assay; type: functional, cell-based; conditions: TDE = time-dependent effect
[36] = tested on: MCF7; assay: Induction of ROS accumulation in human MCF7 cells at 11.33 uM after 24 hrs by CM-H2-DCFDA probe based flow cytometry (reference value: 12.6 %); type: functional

C[C@@H]1CC[C@@]2(OC1)O[C@H]1C[C@H]3[C@@H]4CC[C@H]5C[C@@H](O[C@@H]6O[C@H](CO)[C@H](O[C@@H]7O[C@H](CO)[C@@H](O)[C@H](O[C@@H]8OC[C@@H](O)[C@H](O)[C@H]8O)[C@H]7O[C@@H]7O[C@H](CO)[C@@H](O)[C@H](O)[C@H]7O)[C@H](O)[C@H]6O)CC[C@]5(C)[C@H]4CC[C@]3(C)[C@H]1[C@@H]2C [DEGALACTOTIGONIN]
Activity [1]: 28.5% | Activity [2]: Active | Activity [3]: 0.6% | Activity [4]: 36.3% | Activity [5]: Active | Activity [6]: 99.9% | Activity [7]: Active | viability at 8.27 µM [8]: 0.7% | Activity [9]: 0.5% | Activity [10]: 0% | Activity [11]: Active | Activity [12]: 27.5% | Activity [13]: 5.5% | Activity [14]: 9% | viability at 8.27 µM [15]: 91% | Ratio [16]: 9 | Activity [17]: 43.8% | Activity [18]: 40.1% | Activity [19]: 3%

CC1(C)CC[C@]2(C(=O)O)CC[C@]3(C)C(=CC[C@@H]4[C@@]5(C)CC[C@H](O[C@@H]6O[C@H](C(=O)O)[C@@H](O)[C@H](O)[C@H]6O)C(C)(C)[C@@H]5CC[C@]43C)[C@@H]2C1
Activity [20]: 46% | Activity [21]: Active | Activity [22]: 14% | Activity [23]: Active | Ratio [24]: 0.821 | Activity [25]: Active | Activity [26]: 0.8% | Activity [27]: Active | Activity [28]: 0.7% | Activity [29]: 35.1% | Activity [30]: 11.6% | Activity [31]: Active | Activity [32]: 24.3% | viability at 11.33 µM [33]: 52% | Activity [34]: 29.7% | Activity [35]: tde | Activity [36]: 99.9%
